Measured values as given in patent US10076519B2 (CYTOKINETICS, INC., priority 2010, dated 2018).

Each compound was assayed on rabbit skeletal myofibrils (fast skeletal myofibrils) (assay: Activation of fast skeletal myofibrils (PUMA assay, PK/LDH-coupled ATPase at pCa25)). Settings: AC1.4 determined according to the procedure of Example 39; reported as class symbols.
Format: biochemical
How it was run: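 Detergent-washed rabbit psoas myofibrils (~90% fast fibres, calcium-regulated) assayed at calcium giving 25% of maximal ATPase rate (pCa25). ADP turnover coupled via pyruvate kinase/lactate dehydrogenase to NADH oxidation, read at 340 nm. Buffer 12 mM PIPES, 2 mM MgCl2, 1 mM DTT, pH 6.8; AC1.4 values derived.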
With CC(C)(CNc1ccc(C(=O)N2CCC(C(N)=O)CC2)nn1)c1ccc(F)cc1 [1-[(6-{[2-(4-fluorophenyl)-2-methylpropyl]amino}pyridazin-3-yl)carbonyl]piperidine-4-carboxamide] the “Mean AC1.4” value was “D (D=>20 uM)”. With CC(C)(CNc1ccc(-c2ccc3[nH]nc(N)c3c2)nn1)c1ccccc1CO the “Mean AC1.4” value was “B (B=1-10 uM)”. Oc1cccc(C2(CNc3ccc(-c4ccc5[nH]ncc5c4)nn3)CCC2)n1 [6-({[(6-(1H-indazol-5-yl)pyridazin-3-yl)amino]methyl}cyclobutyl) pyridin-2-ol] was tested, and the “Mean AC1.4” value was “D (D=>20 uM)”. With CC(=O)N1CC=C(c2ccc(NCC(C)(C)c3ccc(F)cc3)nn2)CC1 [1-acetyl-4-(6-{[2-(4-fluorophenyl)-2-methylpropyl]amino}pyridazin-3-yl)-1,2,5,6-tetrahydropyridine] the “Mean AC1.4” value was “D (D=>20 uM)”. With NC(=O)c1cccc(-c2ccc(NCC3(c4ncccc4F)CNC3)nn2)c1 [3-[6-({[3-(3-fluoro-2-pyridyl)azetidin-3-yl]methyl}amino)pyridazin-3-yl]benzamide] the “Mean AC1.4” value was “D (D=>20 uM)”. For CC(C)(CNc1ccc(-c2ccc3[nH]c(=O)oc3c2)nn1)c1ccc(F)cc1, the “Mean AC1.4” value was “A (A=<1 uM)”. With NC(=O)c1cccc(-c2ccc(NCCc3ccc(F)c(F)c3)nn2)c1 the “Mean AC1.4” value was “C (C=10-20 uM)”. For CC(C)(CNc1ccc(C(=O)NCCC(N)=O)nn1)c1ccc(F)cc1 [N-(2-carbamoylethyl)(6-{[2-(4-fluorophenyl)-2-methylpropyl]amino}pyridazin-3-yl)carboxamide], the “Mean AC1.4” value was “D (D=>20 uM)”. For CC(C)(CNc1ccc(-c2ccc(C#N)nc2)nn1)c1ccc(F)cc1 [5-(6-{[2-(4-fluorophenyl)-2-methylpropyl]amino}pyridazin-3-yl)pyridine-2-carbonitrile], the “Mean AC1.4” value was “C (C=10-20 uM)”. In the case of CC(C)Nc1n[nH]c2ccc(-c3ccc(NCC(C)(C)c4ccc(F)cc4)nn3)cc12 [[2-(4-fluorophenyl)-2-methylpropyl](6-{3-[(methylethyl)amino](1H-indazol-5-yl)}pyridazin-3-yl)amine], the “Mean AC1.4” value is reported as “A (A=<1 uM)”. CC(C)(CNc1ccc(-c2cncc(C#N)c2)nn1)c1ccccc1Cl [5-(6-{[2-(2-chlorophenyl)-2-methylpropyl]amino}pyridazin-3-yl)pyridine-3-carbonitrile] was tested, and the “Mean AC1.4” value was “B (B=1-10 uM)”. With NC(=O)n1nc(N)c2cc(-c3ccc(NCC4(c5ncccc5F)CCC4)nn3)ccc21 the “Mean AC1.4” value was “B (B=1-10 uM)”.

Same assay, conditions: median AC1.4 class, procedure of Example 39
In the case of OCc1ncccc1-c1ccc(NCC2(c3ncccc3F)CCC2)nn1, the “Mean AC1.4” value is reported as “C (C=10-20 uM)”. In the case of O=C(O)c1ccc(-c2ccc(NC3(c4ncccc4F)CCC3)nn2)s1 [5-(6-{[(3-fluoro-2-pyridyl)cyclobutyl]amino}pyr-idazin-3-yl)thiophene-2-carboxylic acid], the “Mean AC1.4” value is reported as “D (D=>20 uM)”. For O=C(NCc1cnc(-c2ccc(NCC3(c4ncccc4F)CCC3)nn2)s1)[C@@H]1CC(F)(F)CN1 [((2S)-4,4-difluoropyrrolidin-2-yl)-N-({2-[6-({[(3-fluoro(2-pyridyl))cyclobutyl]methyl}ami-no)pyridazin-3-yl](1,3-thiazol-5-yl)}methyl)carboxamide], the “Mean AC1.4” value was “A (A=<1 uM)”. NC(=O)Nc1ccc(-c2ccc(NC3(c4ncccc4F)CCC3)nn2)c(F)c1 was tested, and the “Mean AC1.4” value was “B (B=1-10 uM)”. NC(=O)c1ccc(F)c(-c2ccc(NC3(c4ccc(O)cn4)CCC3)nn2)c1 was tested, and the “Mean AC1.4” value was “D (D=>20 uM)”. For O=C(NC[C@H](O)CO)c1cnc(-c2ccc(NCC3(c4ncccc4F)CCC3)nn2)s1 [N-((2S)-2,3-dihydroxypropyl){2-[6-({[(3-fluoro(2-pyridyl))cyclobutyl]methyl}ami-no)pyridazin-3-yl](1,3-thiazol-5-yl)}carboxamide], the “Mean AC1.4” value was “A (A=<1 uM)”. For NC(=O)c1sc(-c2ccc(NCC3(c4ncccc4F)CCC3)nn2)nc1O [2-[6-({[(3-fluoro(2-pyridyl))cyclobutyl]methyl}ami-no)pyridazin-3-yl]-4-hydroxy-1,3-thiazole-5-carboxamide], the “Mean AC1.4” value was “B (B=1-10 uM)”. With NC(=O)c1nc(-c2ccc(NCC3(c4ncccc4F)CCC3)nn2)c[nH]1 the “Mean AC1.4” value was “C (C=10-20 uM)”. Fc1cccnc1C1(CNc2ccc(-c3ncc(-c4nn[nH]n4)s3)nn2)CCC1 [[6-(5-(2H-1,2,3,4-tetraazol-5-yl)(1,3-thiazol-2-yl))pyridazin-3-yl]{[(3-fluoro(2-pyridyl))cyclobutyl]methyl}amine] was tested, and the “Mean AC1.4” value was “B (B=1-10 uM)”. For CC(C)(CO)Nc1ccc(-c2cccc(C(N)=O)c2)nn1, the “Mean AC1.4” value was “D (D=>20 uM)”. With N#Cc1cccc(-c2ccc(NC[C@]3(c4ncccc4F)C[C@H](F)C3)nn2)c1 [3-[6-({[3-fluoro-1-(3-fluoro(2-pyridyl))cyclobutyl]methyl}ami-no)pyridazin-3-yl]benzenecarbonitrile] the “Mean AC1.4” value was “B (B=1-10 uM)”. With NC(=O)c1cnc(-c2ccc(NC3(c4ccc(F)cc4)CCC3)nn2)s1 [2-(6-{[(4-fluorophenyl)cyclobutyl]ami-no}pyridazin-3-yl)-1,3-thiazole-5-carboxamide] the “Mean AC1.4” value was “B (B=1-10 uM)”. With Fc1cccnc1C1(Nc2ccc(C3=CCCCC3)nn2)CCC1 [(6-cyclohex-1-enylpyridazin-3-yl)[(3-fluoro(2-pyridyl))cyclobutyl]amine] the “Mean AC1.4” value was “C (C=10-20 uM)”. CS(=O)(=O)Nc1cccc(-c2ccc(NC3(c4ccc(F)cc4)CCC3)nn2)c1 was tested, and the “Mean AC1.4” value was “A (A=<1 uM)”. For OC(c1cnc(-c2ccc(NCC3(c4ncccc4F)CCC3)nn2)s1)C(F)(F)F (centres unmarked) [2,2,2-trifluoro-1-{2-[6-({[(3-fluoro(2-pyridyl))cyclobutyl]methyl}ami-no)pyridazin-3-yl](1,3-thiazol-5-yl)}ethan-1-ol], the “Mean AC1.4” value was “B (B=1-10 uM)”.

Same assay, conditions: median AC1.4 reported as class; procedure of Example 39
In the case of O=C(N[C@@H]1CCOC1)c1cccc(-c2ccc(NC[C@]3(c4ncccc4F)C[C@H](F)C3)nn2)c1 [N-((3R)oxolan-3-yl){3-[6-({[3-fluoro-1-(3-fluoro(2-pyridyl))cyclobutyl]methyl}ami-no)pyridazin-3-yl]phenyl}carboxamide], the “Mean AC1.4” value is reported as “B (B=1-10 uM)”. With Cc1cc(C(N)=O)c(O)c(-c2ccc(NCC3(c4ncccc4F)CCC3)nn2)c1 [3-[6-({[(3-fluoro(2-pyridyl))cyclobutyl]methyl}ami-no)pyridazin-3-yl]-2-hydroxy-5-methylbenzamide] the “Mean AC1.4” value was “B (B=1-10 uM)”. In the case of COc1ncc(-c2ccc(NCC3(c4ncccc4F)CCC3)nn2)cc1C(N)=O [5-[6-({[(3-fluoro(2-pyridyl))cyclobutyl]methyl}ami-no)pyridazin-3-yl]-2-methoxypyridine-3-carboxamide], the “Mean AC1.4” value is reported as “C (C=10-20 uM)”. For NC(=O)c1coc(NC(=O)c2ccc(NCC3(c4ncccc4F)CCC3)nn2)n1 [2-{[6-({[(3-fluoro-2-pyridyl)cyclobutyl]methyl}amino)pyr-idazin-3-yl]carbonylamino}-1,3-oxazole-4-carboxamide], the “Mean AC1.4” value was “D (D=>20 uM)”. In the case of O=C(NCc1cccnc1)c1ccc(NCC2(c3ncccc3F)CCC2)nn1 [[6-({[(3-fluoro(2-pyridyl))cyclobutyl]methyl}ami-no)pyridazin-3-yl]-N-(3-pyridylmethyl)carboxamide], the “Mean AC1.4” value is reported as “C (C=10-20 uM)”.
